Test results reported in patent US8747837B2, “Oncolytic vaccinia virus combination cancer therapy” (priority 2009, dated 2014).
“Also recorded” adds a separate entry of the source. Read-outs that look alike come from different tables or passages of the source.

Experiments:
[1] = tested on: CT26 colorectal tumor cells; assay: CT26 subcutaneous colorectal tumor model; format: in vivo, Balb/c mice; settings: combination therapy, FIG. 3 legend
Procedure: FIG. 3. […] Kaplan-Meier survival curves are shown for each condition in the middle panel. Effects on tumor volume are shown in the lower panel.
Sorafenib enhances JX-594 activity against murine CT26 primary tumors in vivo: The combination of JX-594 and sorafenib was tested in an immunocompentent murine model of subcutaneously implanted CT26 colorectal tumor cells. Balb/c mice were injected with 3×10^5 CT26 cells subcutaneously and after 11 days, treatment commenced with Sorafenib alone (10 mg/kg p.o. daily for 2 weeks), JX594 alone (10^8 pfu IV 3 times per week for 1 week), or in combination (JX594 prior to Sorafenib, or Sorafenib prior to JX594) (n=4 per group) (FIG. 3, upper panel). Control animals received PBS only. For this experiment, a version of JX-594 was used that expresses murine GM-CSF. Tumors were measured twice weekly until endpoint. Surviving proportions of each study group at each timepoint post treatment are shown (FIG. 3, middle panel). The mean tumor volumes of each study group at each timepoint post-treatment are shown (FIG. 3, lower panel).

murine HCC model = format: in vivo
[2] = tested on: HepG2 (human HCC line) tumors; assay: HepG2 vascularity study, CD31 vessel counts; format: in vivo, nude mice
Source text: FIG. 6 Anti-vascular effects of JX-594 followed by sorafenib. Top panels show study design of a preclinical study of JX-594 followed by Sorafenib in HepG2 xenograft model. […] Error bars are standard error.
Experimental Methods, Vascularity Study: The study followed longer term effects on vascularity and assessed the efficacy of JX-594+/−Sorafenib in the HepG2 model. HepG2 (human HCC line) tumors were implanted subcutaneously in nude mice. Animals were randomized to seven treatment groups (n=5 per group) to test agents alone, and in combination. Groups were treated with JX-594 (10^6 pfu intratumorally, D1 and D8) and/or Sorafenib (400 μg i.p., daily D15-D29) or PBS (control) on the schedule detailed in (FIG. 6). Tumors were measured using calipers twice weekly. Serum samples were collected on D1, D8, D15, D22 and D29 for measurement of VEGF and GM-CSF levels. Mice were euthanized on D22 or D35. Prior to euthanization, mice were injected with fluorescent microspheres to allow for visualization of tumor perfusion. […]
Results: Vessels were counted in CD31-stained OCT tumor sections; the average number of vessels in 3 fields of 200× magnification are presented in (FIG. 6).

hepatocellular carcinoma [3] = assay: Sorafenib therapy following JX-594 in HCC patients (DCE-MRI, Choi); format: in vivo, human
Procedure: Sorafenib Therapy and Tumor Response Assessment Following JX-594: Patients completed the IT clinical trial of JX-594 after 8 weeks on study. Some patients (Patients 1702, 1705, 1002, 1712, 1713) went on to receive standard sorafenib treatment (400 mg twice daily p.o.). Tumors in these patients were followed by DCE-MRI imaging using the same procedures that were used to assess response to JX-594 treatment.
Tumor Vascularity and Response Assessment: DCE MRI (dynamic contrast-enhanced magnetic resonance imaging) was performed at screening (baseline), on Day 5 (optional) and Week 8. For patients going on to Sorafenib, DCE MRI was performed 4 and/or 8 weeks after the start of Sorafenib treatment. DCE MRI assesses tumor size, vascularity and necrosis. The screening/baseline DCE MRI was used as the reference from which to determine time to progression and response rates. […] Tumor progression status and tumor response(s) to JX-594 were assessed radiologically by modified RECIST and modified Choi criteria at the Week 8 visit. Independent review of the images was made by radiologist(s) with expertise in evaluating hepatocellular carcinoma on MRI scans. For evaluation of the intra-hepatic tumors, the proportion of subjects with an objective “complete” or “partial” anti-tumor response was determined based on modified RECIST, and a response as measured by Modified Choi criteria (defined as a ≧10% decrease in the sum of the longest diameter and/or ≧15% decrease in the average tumor signal intensity at MRI).
Tumor Response by Modified Choi Criteria: The Choi response criteria takes into consideration changes in tumor density in addition to tumor diameter (versus RECIST) and data supporting its utility has been published (Choi et al. 2004). Early studies have shown that liver tumors treated with JX-594 can develop significant internal necrosis without a concomitant decrease in size, as has been described in gastrointestinal stromal tumors by Choi et al. (2004). Therefore, intra-hepatic tumors were also measured and response evaluated using a Modified Choi Criteria. The modification of the criteria is necessary as DCE MRI was the imaging modality employed for measuring tumor response. […] The screening/baseline DCE MRI was used as the reference from which to determine response. A response by Modified Choi criteria was defined as a ≧10% decrease in the sum of the longest diameter of the injected tumor(s) and/or ≧15% decrease in the average injected tumor signal intensity on MRI. The average MRI signal intensity (SI) was measured as a percentage of tumor.

hepatocellular carcinoma [4] = assay: Phase 2 trial, IV JX-594 then IT JX-594 then sorafenib in HCC; format: in vivo, human; settings: Patient JX16-HCC-03, 10 days after sorafenib initiation, after one IV and two IT doses of JX-594
Procedure: JX-594 Treatment Procedure, Patients Treated by IV JX-594 Followed by IT JX-594 Followed by Sorafenib: Patients with unresectable HCC received […] of JX-594 levels (10^9 pfu). For the first dose (Day 1), JX-594 was administred by intravenous infusion over 60 minutes. For the second and third doses (Day 8 and Day 22), JX-594 was administered via imaging-guided intratumoral injection using a multi-pronged Quadrafuse injection needle in roughly spherical tumors, or by a 21-gauge PEIT (percutaneous ethanol injection, multi-pore; HAKKO Medicals; Tokyo, Japan) needle in irregularly-shaped tumors. Starting on Day 25, patients imitated oral sorafenib therapy (400 mg twice daily p.o.). Patients with viable tumor tissue received a Week 12 IT injection of JX-594 (sorafenib treatment was temporarily discontinued 2-3 days before, during and 4-5 days after this booster injection). Imaging (CT, DECE MIR and/or PET-CT) was performed at baseline, Day 25, Week 6 and/or Week 12 to assess response.
Example JX16-HCC-03, IV+IT+IT+Sorafenib Patient: Patient JX16-HCC-03 had hepatocellular carcinoma and was enrolled in a Phase 2 Clinical Trial of JX-594. After completing JX-594 administration (one intravenous and two intratumoral doses) patient received sorafenib.

hepatocellular carcinoma [5] = assay: Sorafenib-only local control group assessed by Choi criteria; format: in vivo, human; settings: no JX-594, 26 total, 15 assessed, both responders also had radiation therapy
Procedure: Example Sorafenib Only “Control Group” (Figure Included): Historically, the RECIST response rate to sorafenib alone is 1-2% (Llovet et al., 2008; Cheng et al., 2009). For a local control group assessed by Choi criteria, HCC patients that had not received JX-594, but had received sorafenib, were assessed for Choi response. In the hospital where 4 of the 5 JX-594 patients were treated, 26 other patients had received sorafenib in the same period. 7 patients died prior to response assessment, and 15 patients were assessed for Choi response. […] It should be noted that both of these patients had received radiation therapy in conjunction with sorafenib therapy.

hepatocellular carcinoma [6] = settings: cited from earlier work; for mean tumor necrosis (MRI): sorafenib-only trial
B16-F10-LacZ cells = assay: B16 melanoma lung nodule model; format: in vivo, C57BL/6 mice; settings: combination therapy, FIG. 4 legend
Procedure: Sorafenib Enhances JX-594 Activity Against Murine B16 Melanoma Lung Nodules in Vivo: The combination of JX-594 and sorafenib was tested in an immunocompentent murine model of B16 melanoma tumors. C57BL/6 mice were injected with 3×10^5 B16-F10-LacZ cells IV and treated with Sorafenib alone (HD: 10 mg/kg, LD: 50 μg/kg p.o. daily for 2 weeks), JX594 alone (10^7 pfu IV 3 times per week for 1 week), or in combination (LD or HD sorafenib prior to JX-594 IV) (n=5 per group)(FIG. 4, top panel). At the end of treatment, mice were sacrificed and lungs were fixed and stained to detect B16 surface nodules (n=5 per group). The mean number of tumor nodules at the end of study is shown for each group (FIG. 4).

[7] = tested on: JX-594 replication in A2780 (ovarian) cells; format: cell-based, vaccinia virus
[8] = tested on: JX-594 replication in PLC/PRF/5 human HCC cell line; assay: JX-594 burst size / replication with sorafenib in PLC/PRF/5 cells; format: cell-based, vaccinia virus
[9] = tested on: JX-594 replication in HepG2 (HCC) cells; format: cell-based, vaccinia virus
[10] = tested on: JX-594 replication in SNU423, SNU398, SNU475, SNU449, SNU387 and U2OS; format: cell-based, vaccinia virus

CNC(=O)c1cc(Oc2ccc(NC(=O)Nc3ccc(Cl)c(C(F)(F)F)c3)cc2)ccn1 [Sorafenib]
JX-594 efficacy against CT26 subcutaneous solid tumors [1]: enhances JX-594 efficacy
angiogenesis (murine HCC model; adjuvant sorafenib after JX-594): inhibited angiogenesis
anti-tumoral efficacy (murine HCC model; adjuvant sorafenib after JX-594, versus either agent alone): significantly improved anti-tumoral efficacy over either agent alone
number of vessels in CD31-stained tumor sections ([2]; Sorafenib alone 400 μg i.p. daily D15-D29, Day 29): transient decrease in the number of vessels
number of vessels in CD31-stained tumor sections ([2]; Sorafenib alone, Day 35): vessel counts increase again
DCE MRI finding after initiation of Sorafenib (hepatocellular carcinoma [3]; Patient 1702, after three IT doses JX-594, 4 and 8 weeks of Sorafenib (200 mg twice daily p.o.)): acute tumor necrosis
DCE MRI finding after initiation of Sorafenib (hepatocellular carcinoma [3]; Patient 1705, after JX-594, 4 weeks of Sorafenib 400 mg twice daily p.o.): acute tumor necrosis
DCE-MRI finding after initiation of Sorafenib (hepatocellular carcinoma [3]; Patient 1712, after JX-594, 4 weeks of Sorafenib 400 mg twice daily p.o.): acute tumor necrosis
tumor necrosis and vascular shutdown with adjuvant sorafenib (hepatocellular carcinoma [3]; sorafenib after the Week 8 assessment, patients pre-treated with JX-594): dramatic and durable tumor necrosis and vascular shutdown in two patients; also recorded: dramatic and durable tumor necrosis and vascular shutdown in at least three patients
DCE-MRI perfusion of non-injected extrahepatic tumor (hepatocellular carcinoma [4]): loss of perfusion
patients with a Choi+ response (hepatocellular carcinoma [5]): 2 patients
RECIST response rate (hepatocellular carcinoma [6]; sorafenib alone, historical (Llovet et al., 2008; Cheng et al., 2009)): 1-2%
mean tumor necrosis (MRI) (hepatocellular carcinoma [6]; after several courses of treatment (Abou-Alfa et al., 2006)): 27%
mean tumor necrosis (MRI) (hepatocellular carcinoma [6]; at baseline (Abou-Alfa et al., 2006)): 9.8%
JX-594 efficacy in murine B16 metastatic melanoma model (B16-F10-LacZ cells): enhances JX-594 efficacy
JX-594 plaque formation and replication (burst) [7]: can inhibit viral growth and replication; also recorded: Inhibits JX-594 Plaque Formation and Replication
JX-594 replication ([8]; 10 μM sorafenib, various MOI, 24 hours infection, plaque assay on Vero cells): inhibited
burst size decreased ([8]; Sorafenib 10 μM added 2 hrs prior to, during or 2 hrs after JX-594 infection, PLC/PRF/5): up to 100 fold
JX-594 plaque formation and replication (burst) [9]: can inhibit viral growth and replication; also recorded: Inhibits JX-594 Plaque Formation and Replication
JX-594 replication [10]: inhibited JX-594 replication
